The source of these data is ChEMBL document CHEMBL4334523, “Enzymatic Preparation of 2'-5',3'-5'-Cyclic Dinucleotides, Their Binding Properties to Stimulator of Interferon Genes Adaptor Protein, and Structure/Activity Correlations” (J Med Chem, 2019).

For data set [1], the target named is T1, Stimulator of interferon genes protein (Homo sapiens, UniProt Q86WV6). Nature of the data set: Activation of recombinant human wild-type STING expressed in 293T cells incubated for 7 hrs in absence of digitonin A by bright Glo-luciferase reporter gene assay. It counts as cell-based.
The target of data set [2] is T1, Stimulator of interferon genes protein. As to the kind of experiment: Activation of recombinant human wild-type STING expressed in 293T cells measured after 30 mins in presence of digitonin A by bright Glo-luciferase reporter gene assay. It counts as cell-based.
Data set [3] addresses Stimulator of interferon genes protein (Homo sapiens, UniProt Q86WV6, G230A/R293Q/R71H). Nature of the data set: Activation of recombinant human STING haplotype R71H/G230A/R293Q mutant expressed in 293T cells measured after 30 mins in presence of digitonin A by bright Glo-luciferase reporter gene assay. It counts as cell-based.
In data set [4] the target is Stimulator of interferon genes protein (Homo sapiens, UniProt Q86WV6, G230A/R293Q). Nature of the data set: Activation of recombinant human STING haplotype G230A/R293Q mutant expressed in 293T cells measured after 30 mins in presence of digitonin A by bright Glo-luciferase reporter gene assay. It counts as cell-based.
The target of data set [5] is Stimulator of interferon genes protein (Homo sapiens, UniProt Q86WV6, R293Q). As to the kind of experiment: Activation of recombinant human STING haplotype R293Q mutant expressed in 293T cells measured after 30 mins in presence of digitonin A by bright Glo-luciferase reporter gene assay. It counts as cell-based.
A further data set relates to Monocyte. As to the kind of experiment: Cytotoxicity against human PBMC-derived monocytes assessed as CD3-negative CD14 positive monocyte viability at 12.5 uM incubated for 16 hrs by Zombie-NIR staining-based flow cytometry relative to control. It counts as functional.
The species entered for another data set is Homo sapiens. It counts as cell-based.
Data set [6] in a line: Cytotoxicity against human PBMC-derived CD3-positive T cells assessed as effect on cell viability at 12.5 uM incubated for 16 hrs by Zombie-NIR staining-based flow cytometry.
Data set [7] addresses T1, Stimulator of interferon genes protein.
Description: Binding affinity to recombinant human wild-type STING assessed as change in melting temperature at 150 uM by SYPRO orange dye based differential scanning fluorimetric method
The next data set is described as follows: cells. The note with it: Homo sapiens, HEK-293T, 0.5 h.

Where only a bound is given, the exact number is not on record here.

Chain of Stimulator of interferon genes protein (Homo sapiens, UniProt Q86WV6, R293Q) (Q86WV6 whole entry R293Q): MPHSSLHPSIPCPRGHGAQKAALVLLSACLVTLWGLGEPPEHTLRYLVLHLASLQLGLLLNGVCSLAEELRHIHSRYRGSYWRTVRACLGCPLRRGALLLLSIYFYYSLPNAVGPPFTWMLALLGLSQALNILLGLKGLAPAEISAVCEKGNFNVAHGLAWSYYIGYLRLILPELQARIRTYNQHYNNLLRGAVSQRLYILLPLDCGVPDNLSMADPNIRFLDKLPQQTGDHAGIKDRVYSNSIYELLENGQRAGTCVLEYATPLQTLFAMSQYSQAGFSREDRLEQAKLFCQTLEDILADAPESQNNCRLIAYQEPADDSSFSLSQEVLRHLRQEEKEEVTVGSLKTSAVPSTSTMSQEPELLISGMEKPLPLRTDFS
T1 sequence (Q86WV6 whole entry): as the sequence (Q86WV6 whole entry R293Q) above, with Q293R counted along it
Chain of Stimulator of interferon genes protein (Homo sapiens, UniProt Q86WV6, G230A/R293Q/R71H) (Q86WV6 whole entry R71H/G230A/R293Q): as the sequence (Q86WV6 whole entry R293Q) above, with R71H, G230A counted along it
Chain of Stimulator of interferon genes protein (Homo sapiens, UniProt Q86WV6, G230A/R293Q) (Q86WV6 whole entry G230A/R293Q): as the sequence (Q86WV6 whole entry R293Q) above, with G230A counted along it
Description for cells: Activation of recombinant human STING haplotype R232H mutant expressed in 293T cells measured after 30 mins in presence of digitonin A by bright Glo-luciferase reporter gene assay

For the compound `Nc1nc2c(ncn2[C@@H]2O[C@@H]3COP(=O)(O)O[C@H]4[C@@H](F)[C@H](n5cnc6c(N)nc(F)nc65)O[C@@H]4COP(=O)(O)O[C@@H]2[C@@H]3O)c(=O)[nH]1`, the EC50 came out at 11000 nM in data set [1]; 20 nM in data set [2]; 80 nM in data set [3]; 30 nM in data set [4]; 80 nM in data set [5]; 70 nM in the data set “cells”. Further, the Activity in the data set with Monocyte was 0.4%; in data set [6] it was “Non-Toxic”. Further, the max activation in the data set filed under Homo sapiens was < 30%. Further, the ΔTm in data set [7] was 14.7 °C.

As to `Nc1nc2c(ncn2[C@@H]2O[C@@H]3COP(=O)(O)O[C@H]4[C@@H](O)[C@H](n5cnc6c(=O)[nH]cnc65)O[C@@H]4COP(=O)(O)O[C@@H]2[C@@H]3O)c(=O)[nH]1`, the EC50 came out at 149000 nM in data set [1]; 50 nM in [2]; 300 nM in data set [3]; 140 nM in [4]; 2200 nM in data set [5]; 2100 nM in “cells”. Also, the Activity with Monocyte was 17%; in data set [6], “Non-Toxic”. Moreover, the max activation in the data set listed under Homo sapiens is < 30%. Besides, the ΔTm in data set [7] is 8.8 °C.

Consider `Nc1nc2c(ccn2[C@@H]2O[C@@H]3COP(=O)(O)O[C@H]4[C@@H](O)[C@H](n5cnc6c(N)ncnc65)O[C@@H]4COP(=O)(O)O[C@@H]2[C@@H]3O)c(=O)[nH]1`, for which the EC50 in data set [1] turned out to be 40400 nM; in data set [2] it was 40 nM; in data set [3] it was 100 nM; in [4], 60 nM; in data set [5] it was 1100 nM; in the data set “cells” it was 3500 nM. For the same compound, the Activity in the data set on Monocyte was 0.9%; in data set [6], “Non-Toxic”. Also, the max activation in the data set filed under Homo sapiens is < 30%. Besides, the ΔTm in data set [7] was determined as 6.6 °C.

With `NC(=O)c1ncn([C@@H]2O[C@@H]3COP(=O)(O)O[C@H]4[C@@H](O)[C@H](n5cnc6c(N)ncnc65)O[C@@H]4COP(=O)(O)O[C@@H]2[C@@H]3O)c1N`, the EC50 is > 300000 nM in data set [1]; 830 nM in data set [2]; 400 nM in data set [3]; 420 nM in data set [4]; 47200 nM in data set [5]; > 45000 nM in “cells”. In addition, the Activity in the data set with Monocyte is reported as 87%; in data set [6] it was “Non-Toxic”. For the same compound, the max activation in the data set listed under Homo sapiens was < 30%. In data set [7], the shift in melting temperature (ΔTm) turned out to be 0.6 °C.

With `Nc1nc2c(ncn2[C@@H]2O[C@@H]3COP(=O)(O)O[C@H]4[C@@H](O)[C@H](n5cnc6c(O)nc(O)nc65)O[C@@H]4COP(=O)(O)O[C@@H]2[C@@H]3O)c(=O)[nH]1`, the EC50 was > 300000 nM in data set [1]; 1800 nM in data set [2]; 1700 nM in data set [3]; 2000 nM in data set [4]; 32800 nM in data set [5]; 20900 nM in the data set “cells”. Further, the Activity was 45% in the data set with Monocyte and “Non-Toxic” in [6]. Also, in the data set listed under Homo sapiens, the max activation was < 30%. Further, the thermal shift (ΔTm) in data set [7] came to 2.4 °C.

For the compound `CNc1ncnc2c1ncn2[C@@H]1O[C@@H]2COP(=O)(O)O[C@@H]3[C@H](O)[C@@H](COP(=O)(O)O[C@H]2[C@H]1O)O[C@H]3n1cnc2c(=O)[nH]c(N)nc21`, the EC50 in data set [1] amounted to 63700 nM; in data set [2], 20 nM; in data set [3], 60 nM; in data set [4], 60 nM; in data set [5] it was 1200 nM; in the data set “cells”, 700 nM. Besides, the figures for the Activity (with Monocyte; in data set [6]) were 0.8% and “Non-Toxic”, respectively. Also, in the data set filed under Homo sapiens, the max activation was < 30%. Also, the ΔTm in data set [7] turned out to be 9 °C.

In the case of `Nc1ncc2ncn([C@@H]3O[C@@H]4COP(=O)(O)O[C@@H]5[C@H](O)[C@@H](COP(=O)(O)O[C@H]4[C@H]3O)O[C@H]5n3cnc4c(=O)[nH]c(N)nc43)c2n1`, the EC50 in data set [1] came to 53900 nM; in data set [2], 20 nM; in data set [3], 40 nM; in [4] it was 40 nM; in data set [5], 700 nM; in “cells”, 1600 nM. The Activity in the data set on Monocyte is 0.6%; in data set [6], “Non-Toxic”. Moreover, the max activation in the data set filed under Homo sapiens was < 30%. The thermal shift (ΔTm) in data set [7] was determined as 9.2 °C.
